According to patent EP0133407A1, “Acetylene derivatives having an enzyme-inhibiting activity, their preparation and their use as medicines” (Etablissement Public dit: CENTRE NATIONAL DE LA RECHERCHE …, priority 1983, dated 1985):

Legend:
[1] = test system: lignées de lymphomes de souris; experiment: In vivo activity against mouse lymphoma lines; settings: certain mouse lymphoma lines
[2] = test system: mélanome DAU d'origine humaine; experiment: In vivo tumour growth: human melanoma DAU in nude mice; design: species or system souris nude; souris traitées présentant un retard dans le développement tumoral: unit not given here; settings: 5.10^5 melanoma DAU cells; 2 x 15 mg/kg on day 1, 2 x 6 mg/kg days 2 to 7; versus untreated controls
Procedure: (§1) Deux types de tumeurs ont été utilisés : • - un carcinome de Lewis (sur souris swiss), • - un mélanome DAU d'origine humaine (sur souris nude).
Les souris ont reçu une injection de 5.10^5 cellules de mélanome DAU Celles traitées ont reçu : • - 2 x 15 mg/kg le premier jour, • - 2 x 6 mg/kg du deuxième au septième jour.

[3] = test system: Cellules de la membrane amniotique humaine; experiment: Cell growth inhibition / toxicity, normal cells: human amniotic membrane cells; assay type: cell-based
[4] = Acute toxicity (DL50) in mice; design: species or system souris swiss; settings: mouse, in vivo, two independent measurements
Procedure: (§2) Les tests dont les résultats sont donnés ci-dessous ont été réalisés avec des solutions du composé 6a (sous forme de chlorhydrate). Dans ces tests, on a étudié l'activité vis à vis de la croissance tumorale (carcinome et mélanome) et la survie de souris swiss auxquelles ont été injectées des quantités variables de cellules d'ascites de Krebs.
Toxicité aigüe : La DL50 du composé 6a (chlorhydrate) déterminée sur ces souris par deux mesures indépendantes est de 60 mg/kg.

Hepatomes de rat = experiment: Cell growth inhibition, transformed cells: rat hepatomas; assay type: cell-based
Source text: (§3) Les tableaux 1 et 2 ci-après donnent le résultat de ces tests qui portent sur trois types de cellules transformées. Les chiffres indiqués représentent le pourcentage d'inhibition de la croissance de cellules traitées par des doses de plus en plus fortes de composé 6a (chlorhydrate) par rapport à celles des mêmes cellules non traitées.

[5] = test system: cellules de leucémie L1210; experiment: Survival of mice inoculated with leukaemia L1210 cells; assay type: in vivo, souris; settings: 3.10^5 L1210 cells; 6 mg/kg for 7 days
Source text: Une étude a aussi été faite sur des souris auxquelles avaient été inoculées 3.10^5 cellules de leucémie L1210.

NRK LA31 à 33° = experiment: Cell growth inhibition, transformed cells: NRK LA31 at 33°; assay type: cell-based, rat
Source text: as §3

[6] = test system: cellules d'ascites de KREBS (carcinome); experiment: Survival of mice injected with Krebs ascites cells; assay type: in vivo, souris swiss; design: taux de survie: unit not given here
Source text: as §2
Les résultats des tests ont été obtenus principalement à partir de souris' auxquelles ont été injectées des cellules d'ascites de KREBS (carcinome) dont l'origine a été décrite par G. KLEIN et E. KLEIN Cancer Research 1951-11-466.

[7] = test system: Cellules de rein de rat NRK B 77; experiment: Cell growth inhibition, transformed cells: NRK B 77; assay type: cell-based
Source text: as §3

[8] = test system: cellules de mélanomes humains M1 DOR; experiment: Complementary in vitro test, dead cells after four days of growth: melanoma M1 DOR; assay type: cell-based; settings: untreated 24, 5760 min
Cellules HeLa humaines = experiment: Cell growth inhibition, transformed cells: HeLa; assay type: cell-based
Source text: as §3

Stability of solutions = assay type: physicochemical; settings: concentrated solutions
Source text: Il convient de préciser que les solutions concentrées du produit 6a sont instables. Le produit est conservé sous forme de solutions diluées, par exemple le chlorhydrate peut être conservé en solution aqueuse diluée.

[9] = test system: cellules de mélanomes humains M3 DAU; experiment: Complementary in vitro test, dead cells after four days of growth: melanoma M3 DAU; assay type: cell-based; settings: untreated 6, 5760 min
Source text: as §3

[10] = test system: Fibroblastes humains MRC 5; experiment: Cell growth inhibition, normal cells: MRC 5 fibroblasts; assay type: cell-based
cellules NRK (normales) = experiment: Growth inhibition in tissue culture, normal NRK cells; assay type: cell-based; settings: 6a solutions made by the second method (example 2) compared with product of example 1
[11] = test system: Cellules d'embryon de poulet; experiment: Transformation of chick embryo cells induced by Rous sarcoma virus; assay type: cell-based
Source text: (§4) Le produit est efficace contre la transformation des cellules d'embryon de poulet induite par le virus du sarcome de ROUS.

virus du sarcome de ROUS = experiment: Replication of Rous sarcoma virus; assay type: cell-based
Source text: as §4

[12] = test system: Cellules d'embryon de poulet; experiment: Cell growth inhibition, normal cells: chick embryo cells; assay type: cell-based
carcinome de Lewis = experiment: In vivo tumour growth: Lewis carcinoma in mice; design: species or system souris swiss; settings: 3.10^5 Lewis carcinoma cells; daily 6 mg/kg or 12 mg/kg
Source text: as §1
Le test est effectué sur des souris auxquelles 3.10^5 cellules de carcinome de Lewis ont été inoculées.

[13] = test system: clone FAZA 967 de l'hépatome de rat REUBER H 35; experiment: Toxicity on hepatoma clone FAZA 967 (LDH, GOT, GPT assayed in the medium); assay type: cell-based
[14] = concentration 1,5.10^-3 (unit not given)
[15] = concentration 2.10^-3 (unit not given)
[16] = concentration 3.10^-3 (unit not given)
[17] = concentration 4.10^-3 (unit not given)
[18] = concentration 5.10^-3 (unit not given)

CCOC(C#CC(C)(C)N)OCC [composé 9a]
activité in vivo [1]: actif sélectivement

CC(C)(N)C#CC=O [composé 6a]
retard dans le développement tumoral [2]: dizaine | souris traitées présentant un retard dans le développement tumoral [2]: 60 | % d'inhibition de la croissance cellulaire ([3]; 6.10^-4 M): 0% | effet sur la croissance et sur la morphologie des cellules ([3]; concentrations de 5.10 et de 10^-4 mole-litre ^-1): aucun effet | LD50 [4]: 60 mg/kg | % d'inhibition de la croissance cellulaire (Hepatomes de rat; 2.10^-4 M): 50% | % d'inhibition de la croissance cellulaire (Hepatomes de rat; 6.10^-4 M): 60% | survie [5]: le même effet que dans le cas du carcinome | % d'inhibition de la croissance cellulaire (NRK LA31 à 33°; 1.10^-4 M): 0% | % d'inhibition de la croissance cellulaire (NRK LA31 à 33°; 2.10^-4 M): 11% | % d'inhibition de la croissance cellulaire (NRK LA31 à 33°; 4.10^-4 M): 63% | % d'inhibition de la croissance cellulaire (NRK LA31 à 33°; 5.10^-5 M): 0% | % d'inhibition de la croissance cellulaire (NRK LA31 à 33°; 6.10^-4 M): Mort | survie ([6]; 5.10^5 cells inoculated, 6 mg/kg for 7 days): provoque un retard dans la mort mais n'augmente pas le taux de survie | taux de survie ([6]; 5.10^5 cells inoculated, 6 mg/kg, treatment of 21 days): ≤ 90 | survie ([6]; 5.10^5 cells, 2 x 15 mg/kg on day 1 then 2 x 6 mg/kg the 6 following days, compared with 21-day treatment): Le même effet | survie ([6]; 10 cellules (so in the source), 2 x 15 mg/kg on day 1 then 2 x 6 mg/kg the 6 following days): encore suffisants | survie ([6]; inoculation of 5.10^6 cells, 2 x 15 mg/kg on day 1 then 2 x 6 mg/kg the 6 following days): efficacité est moindre | survie ([6]; inoculation of 10 cellules (so in the source), 6 mg/kg daily for 7 days): guérison complète jusque 6 mois | % d'inhibition de la croissance cellulaire ([7]; 1.10^-4 M): 16% | % d'inhibition de la croissance cellulaire ([7]; 2.10^-4 M): 31% | % d'inhibition de la croissance cellulaire ([7]; 4.10^-4 M): 57% | % d'inhibition de la croissance cellulaire ([7]; 5.10^-5 M): 0% | inhibition de la croissance en culture de tissus ([7]; 6a solutions made by the second method (example 2) compared with product of example 1, NRK-B77 (transformées)): activité en tous points comparable à celle observée avec le produit de l'exemple 1 | % d'inhibition de la croissance cellulaire ([7]; 6.10^-4 M): 79% | % de cellules mortes après quatre jours de croissance [8, 14]: 21% | % de cellules mortes après quatre jours de croissance [8, 15]: 28% | % de cellules mortes après quatre jours de croissance [8, 16]: 24% | % de cellules mortes après quatre jours de croissance [8, 17]: 26% | % de cellules mortes après quatre jours de croissance [8, 18]: 23% | % d'inhibition de la croissance cellulaire (Cellules HeLa humaines; 1.10^-4 M): 18% | % d'inhibition de la croissance cellulaire (Cellules HeLa humaines; 2.10^-4 M): 36% | % d'inhibition de la croissance cellulaire (Cellules HeLa humaines; 4.10^-4 M): 78% | % d'inhibition de la croissance cellulaire (Cellules HeLa humaines; 5.10^-5 M): 0% | % d'inhibition de la croissance cellulaire (Cellules HeLa humaines; 6.10^-4 M): 91% | stabilité des solutions (Stability of solutions): instables | % de cellules mortes après quatre jours de croissance [9, 14]: 24% | % de cellules mortes après quatre jours de croissance [9, 15]: 47% | % de cellules mortes après quatre jours de croissance [9, 16]: 92% | % de cellules mortes après quatre jours de croissance [9, 17]: 98% | % de cellules mortes après quatre jours de croissance [9, 18]: 98% | % d'inhibition de la croissance cellulaire ([10]; 1.10^-4 M): 0% | % d'inhibition de la croissance cellulaire ([10]; 2.10^-4 M): 0% | % d'inhibition de la croissance cellulaire ([10]; 4.10^-4 M): 0% | % d'inhibition de la croissance cellulaire ([10]; 5.10^-5 M): 0% | % d'inhibition de la croissance cellulaire ([10]; 6.10^-4 M): 18% | inhibition de la croissance en culture de tissus (cellules NRK (normales)): activité en tous points comparable à celle observée avec le produit de l'exemple 1 | efficacité contre la transformation des cellules induite par le virus du sarcome de ROUS [11]: efficace | réplication du virus (virus du sarcome de ROUS): n'est pas inhibée | % d'inhibition de la croissance cellulaire ([12]; 1.10^-4 M): 0% | % d'inhibition de la croissance cellulaire ([12]; 2.10^-4 M): 0% | % d'inhibition de la croissance cellulaire ([12]; 4.10^-4 M): 10% | % d'inhibition de la croissance cellulaire ([12]; 5.10^-5 M): 0% | % d'inhibition de la croissance cellulaire ([12]; 6.10^-4 M): 12% | croissance tumorale (carcinome de Lewis): net ralentissement de la croissance tumorale | toxicité du produit, estimée par dosage dans le milieu des enzymes LDH, GOT et GPT [13]: aucune toxicité
